# Measurements taken from patent US20030022158A1, “Peptides from the TT virus sequence and monospecific antibodies binding to the TT virus” (priority 1999, published 2003).
# What was measured:
# [1] = system: anti-TTV antibodies present in human serum; experiment: Inhibition of serum reactivity to plate-bound peptide by peptide in solution; type: binding; details: peptide SEQ ID NO: 1 on the microplate
# [2] = system: human antibodies in human serum samples P4, P6, P7; experiment: EIA reactivities of serial dilutions of three human serum samples with TTV peptide SEQ ID NO: 1 (Table 5); type: binding
# Description: The EIAs used to identify which peptides interacted with human sera followed protocols known in the art. (See Zhang et al., J Gen Virol, 78:2735-2746 (1997), herein expressly incorporated by reference in its entirety). Briefly, microplates (Nunc, Denmark) were coated for 48 hours with synthetic peptides at a concentration of 10 μg/ml in 0.05M sodium carbonate buffer pH 9.6. […] Bound human IgG was detected by incubation with anti-human IgG antibodies conjugated to alkaline phosphatase (Sigma Chemicals, St. Louis, Mo.). The plates were developed by the addition of […] (Sigma) and the optical densities were determined at 405 nm.
# [3] = system: human IgG antibodies in human serum samples; experiment: EIA of human antibody reactivities to overlapping synthetic peptides of TTV ORF1 and ORF2 (Tables 2 and 3); type: binding; details: for reactivity with serum samples from patients with TTV infection: eight samples with TTV infection; for optical density (OD) at 405 nm: serum diluted 1:100, OD over 0.500 considered positive
# Method in brief: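 Human serum diluted 1:100 was tested for IgG binding to 18-residue overlapping TTV peptides coated at 10 μg/ml (pH 9.6 carbonate, 48 h). Blocking buffer held BSA, goat serum and Tween 20. Alkaline phosphatase anti-human IgG gave a signal measured as OD at 405 nm.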
# [4] = system: Balb/c mice; experiment: Immunization of Balb/c mice with TTV peptide 35, anti-peptide antibody titers; type: in vivo, mouse; details: five Balb/c mice, 100 μg intra-peritoneally in complete Freund's adjuvant, booster week four
# Description: A total of five Balb/c mice were immunized intra-peritoneally with 100 μg of TTV peptide 35 (SEQ ID NO: 1) emulsified 1:1 in complete Freund's adjuvant. Venous blood samples were obtained on weeks 2, 4, and 6. A booster dose of 100 μg in incomplete Freund's adjuvant was given on week four. […] The anti-peptide titers were 1:60 at week 4 and 1:2160 at week 6. […] The following section describes more on the production of antibodies specific for TTV.
# [5] = system: human antibodies in human serum samples; experiment: EIA reactivities of three human serum samples with deletion and alanine substitution analogues of SEQ ID NO: 1 (Table 6); type: binding; details: positive = more than 50% of the reactivity of the original peptide
# Method in brief: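 Plates coated 48 hours with synthetic peptides at 10 μg/ml in carbonate buffer pH 9.6, blocked, then incubated with human sera diluted 1:100. Bound human IgG detected with alkaline phosphatase anti-human IgG; OD read at 405 nm, mapping deletion and alanine-substitution analogues of SEQ ID NO: 1.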
sequence,measurement,setting,value
"TATTTTYAYPGTNRPPV (Peptide Immunogen) [peptide 35, overlapping synthetic peptide of TTV ORF1]",inhibition of serum reactivity to the peptide on the microplate by peptide in solution,[1],inhibited
same,OD at 405 nm,"[2]; human serum sample P4, dilution of serum sample 1:100",1.285 OD
same,OD at 405 nm,"[2]; human serum sample P4, dilution of serum sample 1:200",0.758 OD
same,OD at 405 nm,"[2]; human serum sample P4, dilution of serum sample 1:400",0.411 OD
same,OD at 405 nm,"[2]; human serum sample P4, dilution of serum sample 1:800",0.234 OD
same,OD at 405 nm,"[2]; human serum sample P4, dilution of serum sample 1:1600",0.131 OD
same,OD at 405 nm,"[2]; human serum sample P4, dilution of serum sample 1:3200",0.076 OD
same,OD at 405 nm,"[2]; human serum sample P4, dilution of serum sample 1:6400",0.058 OD
same,OD at 405 nm,"[2]; human serum sample P4, dilution of serum sample 1:12800",0.046 OD
same,OD at 405 nm,"[2]; human serum sample P6, dilution of serum sample 1:100",0.687 OD
same,OD at 405 nm,"[2]; human serum sample P6, dilution of serum sample 1:200",0.375 OD
same,OD at 405 nm,"[2]; human serum sample P6, dilution of serum sample 1:400",0.19 OD
same,OD at 405 nm,"[2]; human serum sample P6, dilution of serum sample 1:800",0.104 OD
same,OD at 405 nm,"[2]; human serum sample P6, dilution of serum sample 1:1600",0.067 OD
same,OD at 405 nm,"[2]; human serum sample P6, dilution of serum sample 1:3200",0.049 OD
same,OD at 405 nm,"[2]; human serum sample P6, dilution of serum sample 1:6400",0.043 OD
same,OD at 405 nm,"[2]; human serum sample P6, dilution of serum sample 1:12800",0.041 OD
same,OD at 405 nm,"[2]; human serum sample P7, dilution of serum sample 1:100",1.782 OD
same,OD at 405 nm,"[2]; human serum sample P7, dilution of serum sample 1:200",1.23 OD
same,OD at 405 nm,"[2]; human serum sample P7, dilution of serum sample 1:400",0.79 OD
same,OD at 405 nm,"[2]; human serum sample P7, dilution of serum sample 1:800",0.45 OD
same,OD at 405 nm,"[2]; human serum sample P7, dilution of serum sample 1:1600",0.246 OD
same,OD at 405 nm,"[2]; human serum sample P7, dilution of serum sample 1:3200",0.131 OD
same,OD at 405 nm,"[2]; human serum sample P7, dilution of serum sample 1:6400",0.087 OD
same,OD at 405 nm,"[2]; human serum sample P7, dilution of serum sample 1:12800",0.061 OD
same,dependence of reactivity on serum dilution,[2]; serial dilutions of serum samples,dependent on the dilution of the serum samples
same,reactivity with serum samples from patients with TTV infection,[3]; EIA,reactive to most of the TTV infected serum samples
same,reactivity with serum samples from patients with TTV infection,"[3]; EIA, listed as TATTTTYAYPGTNRPPV",Every sample from patients with TTV infection was found to be reactive
same,optical density (OD) at 405 nm,"[3]; human serum sample 1, negative for TTV DNA by PCR",0.18 OD
same,optical density (OD) at 405 nm,"[3]; human serum sample 2, negative for TTV DNA by PCR",0.17 OD
same,optical density (OD) at 405 nm,"[3]; human serum sample 3, negative for TTV DNA by PCR",0.27 OD
same,optical density (OD) at 405 nm,"[3]; human serum sample 4, negative for TTV DNA by PCR",1.40 OD
same,optical density (OD) at 405 nm,"[3]; human serum sample 5, negative for TTV DNA by PCR",0.25 OD
same,optical density (OD) at 405 nm,"[3]; human serum sample 6, negative for TTV DNA by PCR",0.64 OD
same,optical density (OD) at 405 nm,"[3]; human serum sample 7, negative for TTV DNA by PCR",2.10 OD
same,optical density (OD) at 405 nm,"[3]; human serum sample 9, positive for TTV DNA by PCR",0.10 OD
same,optical density (OD) at 405 nm,"[3]; human serum sample 11, negative for TTV DNA by PCR",0.64 OD
same,optical density (OD) at 405 nm,"[3]; human serum sample 18, positive for TTV DNA by PCR",0.10 OD
same,optical density (OD) at 405 nm,"[3]; human serum sample 36, positive for TTV DNA by PCR",1.22 OD
same,optical density (OD) at 405 nm,"[3]; human serum sample 48, positive for TTV DNA by PCR",1.11 OD
same,optical density (OD) at 405 nm,"[3]; human serum sample 98, positive for TTV DNA by PCR",0.05 OD
same,optical density (OD) at 405 nm,"[3]; human serum sample 110, positive for TTV DNA by PCR",0.47 OD
same,optical density (OD) at 405 nm,"[3]; human serum sample 155, positive for TTV DNA by PCR",0.95 OD
same,optical density (OD) at 405 nm,"[3]; human serum sample 157, positive for TTV DNA by PCR",0.86 OD
same,human reactivity to peptide (reactive peptides within ORF1),"[3]; tested human sera, EIA",Reactive
same,mice developing detectable peptide-specific antibodies,[4],one developed detectable antibodies
same,"OD at 405 nm, reactivity of human serum sample P4",[5]; human serum sample P4,0.748 OD
same,"OD at 405 nm, reactivity of human serum sample P7",[5]; human serum sample P7,1.659 OD
same,"OD at 405 nm, reactivity of human serum sample P36",[5]; human serum sample P36,0.722 OD
